Measured values: patent US20260242362A1, “PREPARATION OF 3,4,5-TRISUBSTITUTED TRIAZOLES AND METHODS OF USING THE SAME” (University of Florida Research Foundation, Incorporated, priority 2023, published 2026)
Read-outs that look alike come from different tables or passages of the source.

Legend:
[1] = target: T1, kappa opioid receptor (Homo sapiens, UniProt P41145); assay: GTPγS binding assay (G-protein activation); assay type: biochemical; conditions: for EC50: 3 parameter nonlinear regression, nc = did not converge; for GTPγS Emax (% U60): relative to U69,593 = 100% Emax; for GTPγS maximum stimulation observed at 10 μM (starred Emax cells): * compounds that did not reach plateau
Target sequence in this assay (P41145 whole entry): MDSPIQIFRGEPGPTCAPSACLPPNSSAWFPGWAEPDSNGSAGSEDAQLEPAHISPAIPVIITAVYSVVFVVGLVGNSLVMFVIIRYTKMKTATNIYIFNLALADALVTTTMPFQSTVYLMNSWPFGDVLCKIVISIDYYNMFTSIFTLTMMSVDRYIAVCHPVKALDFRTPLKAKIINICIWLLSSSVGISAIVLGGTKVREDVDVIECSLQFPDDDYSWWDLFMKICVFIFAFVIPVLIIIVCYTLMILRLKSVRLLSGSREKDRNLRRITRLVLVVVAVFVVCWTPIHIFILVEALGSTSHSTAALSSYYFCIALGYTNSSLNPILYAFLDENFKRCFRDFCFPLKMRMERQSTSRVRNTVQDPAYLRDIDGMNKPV

[2] = mouse, microsomes
Description: (§2) Microsomal stability was determined using mouse hepatic microsomes and LC/MS detections over time (Zhou et al., 2013, 22).

[3] = target: T1, kappa opioid receptor; assay: PathHunter DiscoverX β-arrestin2 recruitment (enzyme fragment complementation) assay; assay type: cell-based; conditions: for EC50: 3 parameter nonlinear regression, nc = did not converge; for β-arrestin2 Emax (% U60): relative to U69,593 = 100% Emax, ~ did not plateau at 100%; for β-arrestin2 maximum stimulation observed at 10 μM (starred Emax cells / % max at 10 uM): * compounds that did not reach plateau
Target sequence in this assay (P41145 whole entry): as above
Target sequence in this assay (P32121 whole entry partner): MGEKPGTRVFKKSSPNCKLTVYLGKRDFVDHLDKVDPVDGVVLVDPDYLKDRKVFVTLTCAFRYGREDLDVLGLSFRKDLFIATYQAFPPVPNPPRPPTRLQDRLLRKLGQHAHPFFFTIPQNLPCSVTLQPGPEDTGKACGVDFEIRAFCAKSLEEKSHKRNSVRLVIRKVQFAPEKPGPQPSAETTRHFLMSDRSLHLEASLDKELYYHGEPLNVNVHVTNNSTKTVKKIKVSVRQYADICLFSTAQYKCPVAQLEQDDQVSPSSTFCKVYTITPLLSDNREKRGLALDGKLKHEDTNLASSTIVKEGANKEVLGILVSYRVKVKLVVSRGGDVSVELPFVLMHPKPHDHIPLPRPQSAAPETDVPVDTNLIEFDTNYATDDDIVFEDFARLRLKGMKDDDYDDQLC

[4] = target: T1, kappa opioid receptor; assay: Bias analysis by operational model, G protein vs βarrestin2, U69,593 as reference agonist; conditions: U69,593 reference agonist; global parameter fitting
Target sequence in this assay (P41145 whole entry): as the sequence (P41145 whole entry) above

[5] = Microsomal stability, LC/MS detection over time; conditions: mouse hepatic microsomes
Description: as §2

[6] = tested on: adult male C57BL6/J mice; conditions: mouse, in vivo
[7] = target: T2, μ-opioid receptor (Homo sapiens, UniProt P35372); assay: Radioligand binding displacement (Psychoactive Drug Screening Program); conditions: initial profiling
T2 construct: Psychoactive Drug Screening Program (UNC-CH)
Description: (§1) In some embodiments, the compounds disclosed herein are selective KOR binding ligands. As used herein, the term “selective binding ligands” refers to compounds, which display an increased selectivity for binding a particular KOR when compared to inhibiting other opioid receptors (such as μ- and δ-opioid receptors).

[8] = target: T3, δ-opioid receptor (Homo sapiens, UniProt P41143); assay: as above; conditions: initial profiling
T3 construct: Psychoactive Drug Screening Program (UNC-CH)
Description: as §1

[9] = tested on: adult male C57BL6/J mice; assay: Open field test box mouse model for sedation; conditions: 60 minutes

T3 sequence (P41143 whole entry): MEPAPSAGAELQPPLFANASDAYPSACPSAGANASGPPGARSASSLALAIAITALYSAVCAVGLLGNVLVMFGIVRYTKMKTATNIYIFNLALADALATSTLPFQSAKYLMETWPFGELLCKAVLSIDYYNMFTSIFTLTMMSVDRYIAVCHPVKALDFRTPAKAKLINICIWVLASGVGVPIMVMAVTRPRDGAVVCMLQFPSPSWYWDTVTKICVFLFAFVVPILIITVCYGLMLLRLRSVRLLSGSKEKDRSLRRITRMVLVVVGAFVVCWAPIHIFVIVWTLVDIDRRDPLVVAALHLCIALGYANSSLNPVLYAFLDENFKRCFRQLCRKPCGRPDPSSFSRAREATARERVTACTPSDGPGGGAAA
T2 sequence (P35372 whole entry): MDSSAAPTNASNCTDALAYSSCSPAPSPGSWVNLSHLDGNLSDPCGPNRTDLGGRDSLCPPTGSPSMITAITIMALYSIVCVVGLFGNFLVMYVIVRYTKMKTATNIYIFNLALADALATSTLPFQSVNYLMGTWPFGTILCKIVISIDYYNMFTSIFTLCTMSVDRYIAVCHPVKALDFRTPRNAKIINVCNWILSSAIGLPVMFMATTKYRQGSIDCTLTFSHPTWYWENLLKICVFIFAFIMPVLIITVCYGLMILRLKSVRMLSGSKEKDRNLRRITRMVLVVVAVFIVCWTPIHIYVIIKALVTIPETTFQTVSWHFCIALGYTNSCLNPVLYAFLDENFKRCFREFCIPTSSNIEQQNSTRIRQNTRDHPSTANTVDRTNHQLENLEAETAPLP

SMILES	EC50 [1] [nM]	GTPγS Emax (% U60) [1] [% U60]	Microsomal Stability [2] [min]	EC50 ([3]; read-out: β-arrestin2 EC50) [nM]	β-arrestin2 Emax (% U60) [3] [% U60]	β-arrestin2 maximum stimulation observed at 10 μM (starred Emax cells / % max at 10 uM) [3]	other results
Cc1ccc(/C=C/c2nnc(-c3ccccn3)n2Cc2ccco2)cc1C(F)(F)F (single isomer, unassigned) [Compound 40]	1600	97	18	7200	54		KOR potency / activity in words (SAR commentary) [1]: loss in potency; Bias (bias factor 10^ΔΔ(logτ/KA) Gprotein-Barr2) [4]: 5
Cc1ccc(/C=C/c2nnc(-c3ccccn3)n2Cc2ccco2)cc1C(F)(F)F [42 (UNC9008)]	1600	96.5		51300	119		Bias (bias factor 10^ΔΔ(logτ/KA) Gprotein-Barr2) [4]: 3.5
Cc1ccc(/C=C/c2nnc(-c3ccccn3)n2Cc2cccs2)cc1C(F)(F)F [49 (UNC9009)]	667	83.2		20600		36.4 (% max at 10 uM) % U60	Bias (bias factor 10^ΔΔ(logτ/KA) Gprotein-Barr2) [4]: 6.7
Cc1ccc(CCc2nnc(-c3ccccn3)n2Cc2ccco2)cc1C(F)(F)F [Compound 2]		90			119		Microsomal Stability ([5]; Table 1, head prints no unit (b175 gives min)): 0.9; Microsomal Stability [5]: 0.9 min; EC50 ([3]; β-arrestin2 EC50 (nM)): 788 nM
Cc1ccc(CCc2nnc(-c3ccccn3)n2Cc2cccs2)cc1C(F)(F)F [Compound 5]				624	110		sedation in open field test activity monitor [6]: does not induce sedation; displacement of radioligand binding to μ-opioid receptor [7]: less than 50%; displacement of radioligand binding to δ-opioid receptor [8]: less than 50%
Brc1cccc(CCc2nnc(-c3ccccn3)n2Cc2cccs2)c1 [Compound 29]		89	3.1	5020	114		
Brc1ccccc1CCc1nnc(-c2ccccn2)n1Cc1cccs1 [Compound 30]		84	1.7	> 10000		53* % U60	
Clc1ccc(CCc2nnc(-c3ccccn3)n2Cc2cccs2)cc1Cl [Compound 32]							Microsomal Stability [5]: 1.5 min
Clc1ccc(CCc2nnc(-c3ccccn3)n2Cc2cccs2)c(Cl)c1 [Compound 33]		91			154		Microsomal Stability [5]: 2.1 min
FC(F)(F)c1ccc(CCc2nnc(-c3ccccn3)n2Cc2cccs2)cc1Cl [Compound 34]	1.4		1.3	127			
C(=C/c1nnc(-c2ccccn2)n1Cc1ccco1)/c1ccccc1 [Compound 38]			19.4			0* % U60	GTPγS maximum stimulation observed at 10 μM (starred Emax cells) [1]: 3* % U60
C(=C/c1nnc(-c2ccccn2)n1Cc1ccco1)/c1ccccc1 [Compound 39]	1800		12.6			19* % U60	
OC(Cc1ccccc1)c1nnc(-c2ccccn2)n1Cc1ccco1 (stereo not shown) [Compound 41]			17.4			0* % U60	KOR potency / activity in words (SAR commentary) [1]: loss in potency; GTPγS maximum stimulation observed at 10 μM (starred Emax cells) [1]: 22* % U60
O=C(Cc1ccccc1)c1nnc(-c2ccccn2)n1Cc1ccco1 [Compound 42]			8.1		2		KOR potency / activity in words (SAR commentary) [1]: loss in potency; GTPγS maximum stimulation observed at 10 μM (starred Emax cells) [1]: 4* % U60; metabolic stability in words [2]: increased metabolic stability
FC(Cc1ccccc1)c1nnc(-c2ccccn2)n1Cc1ccco1 (stereo not shown) [Compound 43]	3820		9.1	> 10000		7* % U60	
FC(Cc1nnc(-c2ccccn2)n1Cc1cccs1)c1ccccc1 (stereo not shown) [Compound 46]	1060		69.7	> 10000		64* % U60	
Cc1ccc(/C=C/c2nnc(-c3ccccn3)n2Cc2cccs2)cc1C(F)(F)F [Compound 47]		83	22.0			36* % U60	KOR potency / activity in words (SAR commentary) [1]: completely inactive
Cc1ccc(/C=C/c2nnc(-c3ccccn3)n2Cc2nccs2)cc1C(F)(F)F [Compound 48]	767	82	19.1			51* % U60	
Cc1ccc(/C=C/c2nnc(-c3nccn3C)n2Cc2ccco2)cc1C(F)(F)F [Compound 49]		76	14.1			17* % U60	
Cc1ccc(/C=C/c2nnc(-c3nccn3C)n2Cc2cccs2)cc1C(F)(F)F [Compound 50]	1010	77	12.2	55800		38* % U60	
Cc1ccc(/C=C/c2nnc(-c3nccn3C)n2Cc2nccs2)cc1C(F)(F)F [Compound 51]	309		14.5	1680	34		
Clc1ccc(CCc2nnc(-c3ccccn3)n2Cc2ccco2)cc1 [Compound 52]	99	84	3.3	4530	191		
Cn1ccnc1-c1nnc(CCc2ccc(Cl)cc2)n1Cc1nccs1 [Compound 53]	2250	94	2.4	5020	81		
Cc1ccc(CCc2nnc(-c3nccn3C)n2Cc2ccco2)cc1C(F)(F)F [Compound 54]	69	92	1.6	788	112		Emax (weak partial agonist) ([3]; text b193, assay not named): about 26%
Cc1ccc(CCc2nnc(-c3nccn3C)n2Cc2cccs2)cc1C(F)(F)F [Compound 56]	95	105		888	98		Bias (bias factor 10^ΔΔ(logτ/KA) Gprotein-Barr2) [4]: 12
Cc1ccc(CN(Cc2ccco2)C(=O)c2ccccn2)cc1C(F)(F)F [Compound 57]	368	92	1.8	3130	87		
Cc1ccc(CCN(CCc2ccco2)C(=O)c2ccccn2)cc1C(F)(F)F [Compound 61]	1540	78	0.9	> 10000		41* % U60	
Cc1ccc(CCCN(CCCc2ccco2)C(=O)c2ccccn2)cc1C(F)(F)F [Compound 64]	3060	88	1.0	> 10000		26* % U60	
Cc1ccc(CSc2nnc(-c3ccccn3)n2Cc2ccco2)cc1C(F)(F)F [Triazole 1.1]							Microsomal Stability [5]: 1.1 min; sedation in open field test activity monitor [9]: does not induce sedation; time spent in the center of the open field box [9]: did not effect center time
